# In patent US10273468B2 (priority 2016, dated 2019):
# Entries after “also recorded” stand apart in the source; their conditions may differ. Like-named read-outs stand apart in the source and are kept apart here.
# Assays:
# Tet(55) [1] = molecular target: T1, Tet(55) (Unknown prokaryotic organism, UniProt A0A0H4TXY1); assay: biochemical
# Tet(55) [2] = molecular target: T1, Tet(55); assay: biochemical; remark: listed apart in the source
# Tet(51) = type: biochemical; conditions: 1 mM anhydrotetracycline, 0.1 mM tetracycline
# Tet(55) [3] = molecular target: T1, Tet(55); type: biochemical; conditions: 1 mM anhydrotetracycline, 0.1 mM tetracycline
# Tet(47-56) = conditions: by Tet(47-56); cited from earlier work
# L. longbeacheae = type: cell-based
# Tet(X) [4] = molecular target: T2, Tet(X) (Bacteroides thetaiotaomicron, UniProt Q93L51); type: biochemical; conditions: 1 mM anhydrotetracycline, 0.1 mM tetracycline
# Tet(56) [5] = molecular target: T3, Tet(56) (Legionella longbeachae serogroup 1, UniProt D3HKY4); assay: biochemical
# Tet(50) [6] = molecular target: T4, Tet(50) (Unknown prokaryotic organism, UniProt A0A059WYP6); assay: biochemical
# Tet(X) [7] = molecular target: T2, Tet(X); conditions: by Tet(X); cited from earlier work
# Tet(50) [8] = molecular target: T4, Tet(50); type: biochemical; conditions: 1 mM anhydrotetracycline, 0.1 mM tetracycline
# Tet(56) [9] = molecular target: T3, Tet(56); type: biochemical, L. longbeachae; conditions: 1 mM anhydrotetracycline, 0.1 mM tetracycline
compound,measurement,setting,value
"CN(C)[C@@H]1C(O)=C(C(N)=O)C(=O)[C@@]2(O)C(=O)c3c(cc4c(Cl)ccc(O)c4c3O)C[C@@H]12 [anhydrodemeclocycline, (4S,4aS,12aS)-7-chloro-4-(dimethylamino)-3,10,11,12a-tetrahydroxy-1,12-dioxo-1,4,4a,5,12,12a-hexahydrotetracene-2-carboxamide]",IC50,Tet(55) [1],9 ± 1 µM
Cc1c2c(c(O)c3c(O)cccc13)C(=O)[C@]1(O)C(=O)C(C(N)=O)=C(O)[C@@H](N(C)C)[C@@H]1C2 [anhydrotetracycline],IC50,Tet(55) [2],25.6 ± 1.2 µM
same,effect on enzymatic tetracycline degradation (HPLC),Tet(51),sufficient to decrease or prevent tetracycline degradation
same,effect on enzymatic tetracycline degradation (HPLC),Tet(55) [3],sufficient to decrease or prevent tetracycline degradation
same,enzymatic degradation,Tet(47-56),not degraded
same,synergy with tetracycline,L. longbeacheae,synergy was not observed
same,effect on enzymatic tetracycline degradation (HPLC),Tet(X) [4],able to prevent tetracycline degradation; also recorded: sufficient to decrease or prevent tetracycline degradation
same,IC50,Tet(56) [5],37.1 ± 1.1 µM
same,IC50,Tet(50) [6],83.2 ± 1.2 µM
same,enzymatic degradation,Tet(X) [7],slowly degraded
same,effect on enzymatic tetracycline degradation (HPLC),Tet(50) [8],sufficient to decrease or prevent tetracycline degradation
same,effect on enzymatic tetracycline degradation (HPLC),Tet(56) [9],tetracycline is not degraded
"Cc1c2c(c(O)c3c(O)ccc(Cl)c13)C(=O)[C@]1(O)C(=O)C(C(N)=O)=C(O)[C@@H](N(C)C)[C@@H]1C2 [anhydrochlortetracycline, (4S,4aS,12aS)-7-chloro-4-(dimethylamino)-3,10,11,12a-tetrahydroxy-6-methyl-1,12-dioxo-1,4,4a,5,12,12a-hexahydrotetracene-2-carboxamide]",IC50,Tet(55) [1],9 ± 1 µM
"Cc1c2c(c(O)c3c(O)ccc(I)c13)C(=O)[C@]1(O)C(=O)C(C(N)=O)=C(O)[C@@H](N(C)C)[C@@H]1C2 [anhydroiodotetracycline, (4S,4aS,12aS)-4-(dimethylamino)-3,10,11,12a-tetrahydroxy-7-iodo-6-methyl-1,12-dioxo-1,4,4a,5,12,12a-hexahydrotetracene-2-carboxamide]",IC50,Tet(55) [1],6 ± 1 µM
